Measured values published in PMC7307930, “Stereoselective Activity of 1-Propargyl-4-styrylpiperidine-like Analogues That Can Discriminate between Monoamine Oxidase Isoforms A and B” (Journal of Medicinal Chemistry, 2020).

Test system: SH-SY5Y cells
Test: MTS cytotoxicity assay
Conditions: 24 h, 5 μM and 10 μM

SMILES | cytotoxic effects
C#CCN1CCC(/C=C/c2ccc(F)cc2)CC1 [Compound 1, (E)-4-(4-Fluorostyryl)-1-(prop-2-yn-1-yl)piperidine] | no significant cytotoxic effects
C#CCN1CCC(CCc2ccc(C(C)C)cc2)CC1 [Compound 97, 4-(4-Isopropylphenethyl)-1-(prop-2-yn-1-yl)piperidine] | no significant cytotoxic effects
C#CCN1CCC(CCc2ccc(C#N)cc2)CC1 [Compound 102, 4-(2-(1-(Prop-2-yn-1-yl)piperidin-4-yl)ethyl)benzonitrile] | no significant cytotoxic effects

Biological target: T1, 5-HT1A receptor (Rattus norvegicus, UniProt P19327)
T1 construct: from tissue; host or cells: rat (male Wistar) brain cortex membranes
T1 sequence (P19327 1-422): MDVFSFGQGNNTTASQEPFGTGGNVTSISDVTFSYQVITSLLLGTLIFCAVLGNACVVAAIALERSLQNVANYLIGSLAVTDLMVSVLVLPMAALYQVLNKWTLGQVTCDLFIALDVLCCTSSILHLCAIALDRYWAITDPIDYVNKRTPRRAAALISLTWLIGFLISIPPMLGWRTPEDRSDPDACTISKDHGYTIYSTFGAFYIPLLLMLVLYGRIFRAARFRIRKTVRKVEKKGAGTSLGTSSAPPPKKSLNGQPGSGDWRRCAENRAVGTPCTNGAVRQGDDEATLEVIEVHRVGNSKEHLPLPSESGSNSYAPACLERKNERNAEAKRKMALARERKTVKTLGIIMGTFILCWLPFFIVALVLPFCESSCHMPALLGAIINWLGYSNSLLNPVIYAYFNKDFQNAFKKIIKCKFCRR
Test: [3H]-8-OH-DPAT radioligand binding assay, rat cortex membranes
Conditions: [3H]-8-OH-DPAT binding, means ±SEM

SMILES | Ki
C#CCN1CCC(CCc2ccc(C#N)cc2)CC1 [Compound 102, 4-(2-(1-(Prop-2-yn-1-yl)piperidin-4-yl)ethyl)benzonitrile] | 8.6 ± 1.7 µM

Same assay, conditions: read-out: Inhibition at 300 µM

SMILES | inhibition at 300 µM
C#CCN1CCC(CCc2ccc(C#N)cc2)CC1 [Compound 102, 4-(2-(1-(Prop-2-yn-1-yl)piperidin-4-yl)ethyl)benzonitrile] | 78%

Biological target: T2, hMAO-A (Homo sapiens, UniProt P21397)
T2 construct: purchased Sigma Aldrich; host or cells: baculovirus-infected insect cells (BTI-TN-5B1-4)
T2 sequence (P21397 1-527): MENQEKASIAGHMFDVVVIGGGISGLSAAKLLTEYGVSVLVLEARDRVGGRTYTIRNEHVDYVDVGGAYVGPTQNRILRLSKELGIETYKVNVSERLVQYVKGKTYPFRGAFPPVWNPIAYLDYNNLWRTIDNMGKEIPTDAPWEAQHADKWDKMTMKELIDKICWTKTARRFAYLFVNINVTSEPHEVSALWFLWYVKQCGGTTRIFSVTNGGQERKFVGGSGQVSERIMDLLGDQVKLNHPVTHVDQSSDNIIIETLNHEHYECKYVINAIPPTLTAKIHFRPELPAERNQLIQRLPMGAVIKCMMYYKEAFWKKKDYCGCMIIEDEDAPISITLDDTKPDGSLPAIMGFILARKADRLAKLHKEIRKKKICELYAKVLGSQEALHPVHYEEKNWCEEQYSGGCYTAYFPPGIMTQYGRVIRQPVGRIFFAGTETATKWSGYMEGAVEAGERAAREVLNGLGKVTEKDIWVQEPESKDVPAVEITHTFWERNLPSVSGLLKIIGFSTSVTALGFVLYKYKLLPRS
Test: hMAO-A inhibition, HRP–Amplex Red coupled fluorimetric assay
Type: biochemical
Conditions: supplement csv; RA at 100 micromolar

SMILES | IC50(MAO-A) class
C#CCN1CCCC(/C=C/c2ccc(F)cc2)C1 (racemic) [Compound 19, (±)-(E)-3-(4-Fluorostyryl)-1-(prop-2-yn-1-yl)piperidine] | na (na-not_active(RA_at_100micromolar>50%))
C#CCN1CCCC(/C=C/c2cc(F)c(F)cc2F)C1 (racemic) [Compound 20, (±)-(E)-1-(Prop-2-yn-1-yl)-3-(2,4,5-trifluorostyryl)piperidine] | na (na-not_active(RA_at_100micromolar>50%))
C#CCN1CCCC(CCc2ccc(F)cc2)C1 (racemic) [Compound 23, (±)-3-(4-Fluorophenethyl)-1-(prop-2-yn-1-yl)piperidine] | na (na-not_active(RA_at_100micromolar>50%))
C#CCN1CCCC(CCc2cc(F)c(F)cc2F)C1 (racemic) [Compound 24, (±)-3-(2,4,5-Trifluorophenethyl)-1-(prop-2-yn-1-yl)piperidine] | na (na-not_active(RA_at_100micromolar>50%))
C#CCN1CCC(CCc2ccc(F)cc2)CC1 [Compound 25, 4-(4-Fluorophenethyl)-1-(prop-2-yn-1-yl)piperidine] | na (na-not_active(RA_at_100micromolar>50%))
C#CCN1CCC(CCc2cc(F)c(F)cc2F)CC1 [Compound 26, 1-(Prop-2-yn-1-yl)-4-(2,4,5-trifluorophenethyl)piperidine] | na (na-not_active(RA_at_100micromolar>50%))
C#CCN1CCC(/C=C\c2ccc(C)cc2)CC1 [Compound 75, (Z)-4-(4-Methylstyryl)-1-(prop-2-yn-1-yl)piperidine] | na (na-not_active(RA_at_100micromolar>50%))
C#CCN1CCC(/C=C/c2ccc(C)cc2)CC1 [Compound 76, (E)-4-(4-Methylstyryl)-1-(prop-2-yn-1-yl)piperidine] | na (na-not_active(RA_at_100micromolar>50%))
C#CCN1CCC(/C=C/c2ccc(Br)cc2)CC1 [Compound 81, (E)-4-(4-Bromostyryl)-1-(prop-2-yn-1-yl)piperidine] | na (na-not_active(RA_at_100micromolar>50%))
C#CCN1CCC(/C=C/c2ccc(OC)cc2)CC1 [Compound 82, (E)-4-(4-Methoxystyryl)-1-(prop-2-yn-1-yl)piperidine] | na (na-not_active(RA_at_100micromolar>50%))
C#CCN1CCC(/C=C\c2ccc(C(F)(F)F)cc2)CC1 [Compound 83, (Z)-1-(Prop-2-yn-1-yl)-4-(4-(trifluoromethyl)styryl)piperidine] | na (na-not_active(RA_at_100micromolar>50%))
C#CCN1CCC(/C=C\c2ccc(S(C)(=O)=O)cc2)CC1 [Compound 89, (Z)-4-(4-(Methylsulfonyl)styryl)-1-(prop-2-yn-1-yl)piperidine] | na (na-not_active(RA_at_100micromolar>50%))
C#CCN1CCC(/C=C/c2ccc(S(C)(=O)=O)cc2)CC1 [Compound 90, (E)-4-(4-(Methylsulfonyl)styryl)-1-(prop-2-yn-1-yl)piperidine] | na (na-not_active(RA_at_100micromolar>50%))
C#CCN1CCC(CCc2ccc(C)cc2)CC1 [Compound 96, 4-(4-Methylphenethyl)-1-(prop-2-yn-1-yl)piperidine] | na (na-not_active(RA_at_100micromolar>50%))
C#CCN1CCC(CCc2ccc(Cl)cc2)CC1 [Compound 98, 4-(4-Chlorophenethyl)-1-(prop-2-yn-1-yl)piperidine] | na (na-not_active(RA_at_100micromolar>50%))
C#CCN1CCC(CCc2ccc(OC)cc2)CC1 [Compound 99, 4-(4-Methoxyphenethyl)-1-(prop-2-yn-1-yl)piperidine] | na (na-not_active(RA_at_100micromolar>50%))
C#CCN1CCC(CCc2cccc(C(F)(F)F)c2)CC1 [Compound 101, 1-(Prop-2-yn-1-yl)-4-(3-(trifluoromethyl)phenethyl)piperidine] | na (na-not_active(RA_at_100micromolar>50%))
C#CCN1CCC(/C=C\c2ccc(C(N)=O)cc2)CC1 [Compound 104, (Z)-4-(2-(1-(Prop-2-yn-1-yl)piperidin-4-yl)vinyl)benzamide] | na (na-not_active(RA_at_100micromolar>50%))
C#CCN1CCC(/C=C/c2ccc(C(N)=O)cc2)CC1 [Compound 105, (E)-4-(2-(1-(Prop-2-yn-1-yl)piperidin-4-yl)vinyl)benzamide] | na (na-not_active(RA_at_100micromolar>50%))
C#CCN1CCC(CCc2ccc(C(N)=O)cc2)CC1 [Compound 106, 4-(2-(1-(Prop-2-yn-1-yl)piperidin-4-yl)ethyl)benzamide] | na (na-not_active(RA_at_100micromolar>50%))
C#CCN1CCC(CCc2ccc(O)cc2)CC1 [Compound 107, 4-(2-(1-(Prop-2-yn-1-yl)piperidin-4-yl)ethyl)phenol] | na (na-not_active(RA_at_100micromolar>50%))

Test system: Swiss mice
Test: Tail suspension test
Type: in vivo, mouse
Conditions: ip 30 min before; 6, 67 at 3 and 10 mg/kg, 69 at 1, 3, 10, 30 mg/kg, imipramine 30 mg/kg
Experimental: The antidepressant-like activity was screened with the widely used tail suspension test. At 30 min before the behavioral assays, the mice were treated with 6, 67, and 69 at 3 mg/kg and 10 mg/kg ip, with 69 also at 1 mg/kg and 30 mg/kg ip, or were injected with 0.9% saline as control. Imipramine (30 mg/kg ip) was used as the reference drug.
(A) Effects of acute ip treatment with 6 (3, 10 mg/kg, n = 13, 9), 67 (3, 10 mg/kg, n = 6, 10), and 69 (1, 3, 10, 30 mg/kg, n = 8, 7, 8, 6) and imipramine (30 mg/kg, n = 8) in the tail suspension test. […] (B) Effects of acute ip treatment with 6 (3, 10 mg/kg, n = 8, 8), 67 (1, 3, 6 mg/kg; n = 5, 5, 5), and 69 (1, 3, 6 mg/kg, n = 10, 5, 5) on locomotor activity of the mice. […] (C) Effects of 10-day chronic ip treatment with 69 (0.3 mg/kg, daily; n = 10) in the tail suspension test. Data are mean values ± SEM of the immobility time, compared to control mice (n = 8): ∗∗, p < 0.01 (unpaired t-test). […]
quality control sample every seven test samples. The absolute matrix effect was checked by comparing the analyte responses in the standard solutions to the samples spiked in the tissue incubation medium from the control experiment without the analyte, and a deviation of less than ±20% was deemed acceptable.
4.2.10In vitro radioligand binding assay
Rats were humanely killed by decapitation and their brains were removed, washed and rapidly dissected on ice. Homogenisation was performed using a homogeniser (PRO Scientific Inc) at 30,000 rpm for 1 min. For 5-HT1A binding assays, the cortex tissues were homogenised in 30 volumes/weight ice-cold 50 mM Tris–HCl buffer (pH 7.4), and the homogenate was centrifuged at 40,000× g for 15 min at 0 °C to 4 °C. The resulting pellets were resuspended in 30 volumes/weight of the same buffer, and incubated at 37 °C for 20 min. The centrifugation step was repeated twice under the same conditions as described above, and the final pellets were resuspended in 30 volumes/weight 50 mM Tris–HCl buffer (pH 7.4), and stored at –80 […]
For the [3H]-8-OH-DPAT binding assay (the 5-HT1A receptor binding assay), the membranes were thawed and resuspended in 50 mM Tris–HCl (pH 7.4) with 1 mM MnCl2, to a final protein concentration of 0.5 mg/mL. The incubation was carried out at 25 °C for 1 h in a final volume of 1 mL membrane suspension in the presence of the sample assayed and with 0.2 nM [3H]-8-OH-DPAT (170.2 Ci/mmol). Serotonin was used as the positive control. Non-specific binding was determined in parallel incubations in the presence of serotonin (10 μM).
4.2.11 Tail suspension test
The tail suspension test was carried out according to the methodology proposed by Steru and co-workers.22 The mice were individually suspended by the tail from a metal hook (distance

SMILES | immobility time, acute treatment
CN(C)CCCN1c2ccccc2CCc2ccccc21 [imipramine, reference compound] | significantly reduced

Test system: not listed separately
Test: Thermodynamic solubility in PBS
Type: physicochemical
Conditions: PBS (pH 7.4), 37 °C, 24 h, hydrochloride salts

SMILES | thermodynamic solubility
C#CCN1CCC(CCc2ccc(C(C)C)cc2)CC1 [Compound 97, 4-(4-Isopropylphenethyl)-1-(prop-2-yn-1-yl)piperidine] | ≥ 14.5 g/250 mL

Test system: Swiss mice
Test: Elevated plus maze test
Type: in vivo, mouse
Conditions: acute ip, 1 mg/kg

SMILES | Open arm entries (%) | Time in centre (%) | Time in open arms (%) | Total arm entries
CN1C(=O)CN=C(c2ccccc2)c2cc(Cl)ccc21 [Diazepam, reference compound] | 29.9 ±3.2% | 37.6 ±5.8% | 22.3 ±3.1% | 36.0 ±3.2
